In this assay the target is T1, colon K^+-ATPase (Oryctolagus cuniculus, UniProt Q9TV52).
T1 construct: Apical brush-border membranes were prepared from rabbit descending colon epithelium; from tissue; host or cells: rabbit descending colon epithelium, apical brush-border membrane fraction (Percoll gradient)
Kind of assay: Inhibition of colon K+-ATPase by acid decomposed omeprazole (Pi liberated from ATP, apical brush-border membranes of descending colon). On the set-up: activity of the colonic K^+-ATPase enzyme: dose or concentration left out as unconfirmed. It is filed as biochemical, rabbit. The protocol: In order to evaluate the inhibitory effect on colonic K^+-ATPase of the substituted benzimidazoles with the general formula I, we have tested one compound, namely omeprazole on an enzyme preparation from the descending colon of the rabbit (cf. below).
In the case of omeprazole the most efficient way to form the active degradation products is to decompose it in acid solution. Thus, omeprazole was decomposed in acid before it was added to the enzyme.
In order to isolate and characterize the ouabain insensitive potassium- stimulated ATPase from rabbit descending colon the following preparation was made.
Apical brush-border membranes were prepared from rabbit descending colon epithelium, by the method of Gustin M.C., and Goodman D.B.P., J. Biol. Chem. 256, 10651-10656 (1981), with some modifications.
Two albino male rabbits, weighing 2-3 kg, were killed by injection of mebumal into the ear vein. A section of colon, 30-35 cm in length, measured from rectum, was removed, rinsed free of its content with icecold 0.15 M NaCl and everted over a glassrod. The tissue was then divided in two pieces. These everted segments were tied at one end, filled with an icecold buffer containing 30 mM NaCl, 5mM Na3EDTA and 8 mM Hepes/Tris pH 7.6, using a 20 ml syringe without a needle, until they became distended, at which point the other end was tied. The intestines were transferred to a 500 ml centrifuge tube containing the same cold pH 7.6 buffer. The tube was placed in an icebox, which was shaken for 2 hours at 260 osc./min. Then the incubation medium was filtered through a nylon net of 200 µm mesh, to remove debris.
Sedimentation of epithelial cells was performed by centrifugation at 500xg for 10 minutes at 4°C, in a Beckman J2-21 centrifuge. The pelleted cells were resuspended in 250 ml of a solution containing 1mM Na3EDTA, adjusted to pH 8.3 with HC1 at 4°C, just before use. The cells were then disrupted, by a 28 second homogenization in a Waring Blendor. The resulting homogenate was centrifuged for 10 minutes at 4°C with a centrifugal force of 750xg in a Beckman J2-21 centrifuge with a JA-17 rotor, in order to sediment brush-borders. Pellets were combined, resuspended in 40 ml of the medium containing 1mM Na3EDTA and recentrifuged as described above. The brush-border pellet (P2) was resuspended in 33.3 ml of the same medium, 2.7 ml density gradient medium (Percoll, Pharmacia) was added by mixing. The Percoll medium was allowed to generate a density gradient during 22 minutes at 40 OOOxg in a Beckman J2-21 centrifuge, in which the membranes sedimented into bands. Nine fractions (Gl-G9) of 4 ml each, were carefully removed from the gradient with a Pasteur-pipette. The fractions were subjected to centrifugation in a Kontron TGA-65 centrifuge with a TST 60 swing-out rotor at 50 000 rpm for 45 minutes, to sediment the Percoll. The material collected on the top of the Percoll pellet was homogenized by a glass-teflon homogenizer with 5-10 up-down strokes at about 1500 rpm.
ATPase activity was determined as the amount of Pi (free phosphate) liberated from ATP by the enzyme per unit of time.
The assay medium contained 2mM ATP, 2mM MgCl2, 18.4 mM Pipes/Tris pH 7.4 and membrane protein in the presence or absence of 10 mM KC1 in a final volume of 1 ml. In some experiments, 10^-5 M of the specific Na^+,K^+-ATPase inhibitor ouabain was present. The enzyme Na^+,K^+-ATPase is responsible for the active transport of Na^+ out from the cell into the plasma as well as for the transport of K^+ into the cell from the plasma. Unless otherwise mentioned, the preparation was preincubated with ouabain on ice for 10 minutes before start of the reaction, which was initiated with ATP, mixed and incubated for suitable time at 37°C. The reaction was stopped by the addition of 1 ml icecold 12 per cent perchloric acid, containing 3.6 per cent ammoniummolybdate. […]

Data on 1 compound can be found in EP0197013A1, “Substituted benzimidazoles for the manufacture of a medicament for treatment of intestinal inflammatory diseases” (Aktiebolaget Hässle, priority 1985, dated 1986).

T1 sequence (Q9TV52 whole entry, other chains not shown): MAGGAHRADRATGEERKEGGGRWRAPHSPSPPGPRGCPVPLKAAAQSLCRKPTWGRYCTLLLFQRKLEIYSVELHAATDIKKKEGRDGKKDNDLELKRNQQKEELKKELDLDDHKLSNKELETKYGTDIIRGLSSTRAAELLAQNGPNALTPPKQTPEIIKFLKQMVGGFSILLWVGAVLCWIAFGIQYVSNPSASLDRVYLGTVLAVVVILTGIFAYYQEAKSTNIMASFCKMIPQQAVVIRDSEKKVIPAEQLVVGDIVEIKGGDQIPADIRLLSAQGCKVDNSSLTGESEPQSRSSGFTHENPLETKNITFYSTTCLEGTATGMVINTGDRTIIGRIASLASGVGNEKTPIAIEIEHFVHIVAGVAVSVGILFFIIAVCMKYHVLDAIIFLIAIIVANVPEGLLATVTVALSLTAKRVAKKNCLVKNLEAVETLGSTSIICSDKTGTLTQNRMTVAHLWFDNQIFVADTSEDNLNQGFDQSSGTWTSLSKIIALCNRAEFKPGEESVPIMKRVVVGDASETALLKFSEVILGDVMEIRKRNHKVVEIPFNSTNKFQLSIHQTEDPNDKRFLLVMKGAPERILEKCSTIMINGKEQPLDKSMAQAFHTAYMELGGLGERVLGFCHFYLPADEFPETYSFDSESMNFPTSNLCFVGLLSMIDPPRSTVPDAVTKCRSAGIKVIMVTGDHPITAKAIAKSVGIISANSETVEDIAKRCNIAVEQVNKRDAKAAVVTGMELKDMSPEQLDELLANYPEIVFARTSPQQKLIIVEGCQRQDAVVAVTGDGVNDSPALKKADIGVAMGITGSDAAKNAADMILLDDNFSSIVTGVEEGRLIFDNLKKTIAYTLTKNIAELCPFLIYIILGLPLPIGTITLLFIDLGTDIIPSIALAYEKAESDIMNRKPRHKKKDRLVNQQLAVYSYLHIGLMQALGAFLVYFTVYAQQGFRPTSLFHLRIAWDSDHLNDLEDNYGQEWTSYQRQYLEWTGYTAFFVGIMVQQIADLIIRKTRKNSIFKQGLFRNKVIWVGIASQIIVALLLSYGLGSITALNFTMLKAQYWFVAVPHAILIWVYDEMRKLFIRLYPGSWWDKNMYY

Turning to `COc1ccc2[nH]c([S+]([O-])Cc3ncc(C)c(OC)c3C)nc2c1` (stereo not drawn) [omeprazole], the remaining activity – broadly, the share of the control activity or signal that is left under treatment – at 1 µM (Initial concentration of omeprazole in the break-down mixture 1.0 µM, omeprazole decomposed at pH 5.0, 120 minutes, 37°C, membranes incubated 10 minutes at 37°C, read-out: Remaining enzyme activity % Mean value ± S.D.) was 100 ± 5.9%. For the same compound, for the setting “Initial concentration of omeprazole in the break-down mixture 2.5 µM, omeprazole decomposed at pH 5.0, 120 minutes, 37°C, membranes incubated 10 minutes at 37°C, read-out: Remaining enzyme activity % Mean value ± S.D.”, the remaining activity at 2.5 µM was 72.4 ± 6%. Also, the remaining activity at 5 µM (Initial concentration of omeprazole in the break-down mixture 5.0 µM, omeprazole decomposed at pH 5.0, 120 minutes, 37°C, membranes incubated 10 minutes at 37°C, read-out: Remaining enzyme activity % Mean value ± S.D.) is 31.9 ± 6.7%. In addition, the remaining activity at 7.5 µM (Initial concentration of omeprazole in the break-down mixture 7.5 µM, omeprazole decomposed at pH 5.0, 120 minutes, 37°C, membranes incubated 10 minutes at 37°C, read-out: Remaining enzyme activity % Mean value ± S.D.) was found to be 18.6 ± 5.5%. Besides, the remaining activity at 10 µM (Initial concentration of omeprazole in the break-down mixture 10.0 µM, omeprazole decomposed at pH 5.0, 120 minutes, 37°C, membranes incubated 10 minutes at 37°C, read-out: Remaining enzyme activity % Mean value ± S.D.) amounted to 5.2 ± 3.2%. Moreover, under “mixture (acid decomposed omeprazole)”, the “activity of the colonic K^+-ATPase enzyme” value is reported as “almost completely inhibits”.
